In experiment [1] the target is T1, human leukocyte elastase (HLE) (Homo sapiens, UniProt P08246).
T1 construct: the mixed solution was subjected to density gradient centrifugation, thereby obtaining neutrophiles; from tissue; host or cells: neutrophils from human vein blood (buffy coat)
T1 sequence (P08246 30-247 limits assumed): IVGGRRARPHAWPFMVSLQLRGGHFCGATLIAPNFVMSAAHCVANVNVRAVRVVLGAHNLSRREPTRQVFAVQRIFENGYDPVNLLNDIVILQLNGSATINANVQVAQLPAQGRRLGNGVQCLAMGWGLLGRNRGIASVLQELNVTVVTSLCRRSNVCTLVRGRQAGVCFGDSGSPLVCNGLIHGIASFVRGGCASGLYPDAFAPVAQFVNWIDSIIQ
The experiment is described as follows: HLE inhibitory activity (synthetic substrate, pNA release, absorbance 405 nm). The format is biochemical. To be noted: pH 8.6; HLE 5.63 nM, substrate 0.2625 mM; 37°C; read-out: IC₅₀ value HLE. As to the method:
(§1) Activities of the Benzoxazine derivatives of the present invention against human leukocyte elastase (HLE), human sputum elastase (HSE), human cathepsin G (HCG), bovine pancreatic α-chmotrypsin (CYT) and bovine pancreatic trypsin (TRY) were measured by the following method.
A buffy coat was obtained by subjecting human vein blood to centrifugation. To the buffy coat was added distilled water to make a hypotonic solution, thereby bursting erythrocytes. To the residual blood cell component was added a 33.4% of Conrey 400 solution/9% Ficoll solution (the ratio of the former solution to the latter solution is 10:24), and the mixed solution was subjected to density gradient centrifugation, thereby obtaining neutrophiles. The neutrophile fraction was washed with Hanks' buffer for three times and then cells were recovered and cryopreserved at -80°C until use. The cryopreserved-cells were thawed with warm water at 37°C and suspended in a 9-fold volume of lysis buffer containing 0.1M Tris-HCl (pH7.5), 1M MgCl₂ and 0.1% Brij 35. The suspended cells are destroyed by means of polotoron with ice-cooling. The cell suspension was subjected to centrifugation at 100,000 x g for 1 hour. After removing precipitates, 2-fold volume of a Tris-HCl buffer containing 5 mM Tris-HCl(pH 7.5), 1M NaCl and 1.1% Brij 35 was added to the supernatant, thereby obtaining a crude solution of an enzyme extract. The crude solution was subjected to aprotinine affinity column and extracted with an elution buffer containing […] of glycine-HCl (pH 3.3), 1M NaCl and 0.1% Brij 35, thereby obtaining an active fraction. The obtained active fraction was further subjected to MONO S-ion-exchange chromatography and eluted with 2M NaCl linear gradient. The obtained fraction was dialyzed against 25 mM Tris-HCl (pH8.6) and lyophilized, thereby obtained an enzyme sample.
(§2) A test compound was dissolved in DMSO (for fluorometry) and prepared various concentration of the solution. To each concentration was added 2-fold volume of 0.2M Tris-HCl (pH8.6), thereby obtaining a test solution. Synthetic substrate (Funakoshi, L-1335) was dissolved in DMSO and 2-volume of 0.2M Tris-HCl (pH8.6) was added thereto, thereby obtaining a substrate solution. The reaction was performed using a microplate having 96 wells (Nunk). Six-time reactions were repeated for each concentration. One handred and forty µl of an enzyme solution containing 0.2M Tris-HCl (pH8.6), 30 µl of a test solution and 30 µl of a substrate solution per well of the microplate were respectively pre-incubated at 37°C for 10 minutes. After completion of the incubation, the enzyme solution was mixed with the test sample and incubated for 10 minutes and then the substrate solution was added to perform an enzyme reaction. The absorbance of released P-nitroanilide (PNA) was measured at the wave length of 405 nm by means of a microplate reader (MTP-100; CORONA), thereby determining the substrate decomposition. The rate of the substrate decomposition was shown as an average value of 6 repeated reactions. The inhibitory concentration of a test compound relative to the amount of the substrate decomposition in the reaction mixture without a test compound was regarded as an IC₅₀ value. The final concentration of HLE and a synthesized substrate in the reaction mixture were 5.63 nM and 0.2625 mM, respectively.

Experiment [2] concerns the target T2, bovine pancreatic trypsin (TRY) (Bos taurus, UniProt P00760).
T2 construct: bovine pancreatic trypsin (TRY); purchased Sigma Inc
T2 sequence (P00760 24-246): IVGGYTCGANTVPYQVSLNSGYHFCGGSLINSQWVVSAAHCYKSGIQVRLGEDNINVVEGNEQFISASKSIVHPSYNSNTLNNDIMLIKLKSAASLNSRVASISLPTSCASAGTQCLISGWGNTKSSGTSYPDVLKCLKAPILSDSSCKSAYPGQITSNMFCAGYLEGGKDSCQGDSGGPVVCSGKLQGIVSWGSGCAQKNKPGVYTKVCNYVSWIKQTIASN
The experiment is described as follows: TRY inhibitory activity (synthetic substrate, pNA release). Format: biochemical. The note with it: pH 7.5; TRY 25 nM, substrate Z-Arg-pNA 1.0 mM; read-out: IC₅₀ value TRY. How it is done:
as §1
as §2, with “The rate of the substrate decomposition was shown as an average value of 6 repeated reactions. The inhibitory concentration of a test compound relative to the amount of the substrate decomposition in the reaction mixture without a test compound was regarded as an IC₅₀ value. The final concentration of HLE and a synthesized substrate in the reaction mixture were 5.63 nM and 0.2625 mM, respectively.” left out

Take `Cc1cccc2nc([C@@H](NC(=O)OCC(c3ccccc3)c3ccccc3)C(C)C)oc(=O)c12` [Compound 1, 2-[1(S)-[(2,2-diphenylethoxy-carbonyl)amino]-2-methylpropyl]-5-methyl-4H-3,1-benzoxazin-4-one]: the IC50 is 70 nM in experiment [1] and greater than 12.5 µM in experiment [2].

The values above are taken from patent EP0569598A1, “BENZOXAZINONE DERIVATIVE” (JAPAN TOBACCO INC., priority 1991, dated 1993).
